Test results taken from the NIST ThermoML archive (doi:10.1016/j.tca.2019.05.008).

What was measured:
[1] = Fast Scanning Calorimeter Method
[2] = molar heat capacity at constant pressure; conditions: 101.33 kPa, Crystal, DSC

Cn1c(=O)c2c(ncn2C)n(C)c1=O [caffeine]
[1], Crystal 1
Conditions	vapor or sublimation pressure [kPa]
394.7 K	0.0031
398.4 K	0.0035
399.8 K	0.0039
404.1 K	0.0067
408.2 K	0.0092
409.7 K	0.0099
413.5 K	0.0116
417.9 K	0.0158
419.5 K	0.019
422.8 K	0.023
427.7 K	0.0336
429.4 K	0.0376
432.2 K	0.0467
437.4 K	0.0651
439.3 K	0.0736
441.6 K	0.0874
447.2 K	0.1252
449.1 K	0.1611
451 K	0.1622
457 K	0.2346
459 K	0.2609
460.4 K	0.2914
466.7 K	0.4121
468.9 K	0.4821
469.8 K	0.4864
476.5 K	0.7169
478.7 K	0.8343
479.2 K	0.9112
486.2 K	1.078
488.6 K	1.415

Cn1c(=O)c2[nH]cnc2n(C)c1=O [3,7-dihydro-1,3-dimethyl-1H-purine-2,6-dione]
[1], Crystal
Conditions	vapor or sublimation pressure [kPa]
441.6 K	0.0028
447.2 K	0.0033
449.1 K	0.0047
451 K	0.0061
457 K	0.0072
459 K	0.0108
460.4 K	0.0109
466.7 K	0.0133
468.9 K	0.0192
469.8 K	0.021
476.5 K	0.0261
478.7 K	0.0365
479.2 K	0.0409
486.2 K	0.0532
496 K	0.1094
498 K	0.1408
498.5 K	0.1485
505.7 K	0.1888
507.4 K	0.2298
508.3 K	0.2823
515.5 K	0.3649
516.8 K	0.3867
518.2 K	0.4909
525.2 K	0.563
526.2 K	0.8232
528.1 K	0.8994
535 K	1.001
537.9 K	1.619

[2]
Conditions	molar heat capacity at constant pressure [J/K/mol]
230 K	159.6
240 K	164.8
250 K	170
260 K	175.1
270 K	180.2
280 K	185.3
290 K	190.3
300 K	195.4
310 K	200.4
320 K	205.3
330 K	210.3
340 K	215.2
350 K	220.1
360 K	224.9
370 K	229.7
380 K	234.5
390 K	239.3
400 K	244
410 K	248.7
420 K	253.4

O=C1c2ccccc2C(=O)c2ccccc21 [9,10(9H,10H)-anthracenedione]
[1], Crystal
Conditions	vapor or sublimation pressure [kPa]
422.8 K	0.0135
427.7 K	0.0152
429.2 K	0.0165
432.2 K	0.0209
437.4 K	0.0345
439.1 K	0.0354
441.6 K	0.0381
447.2 K	0.0511
448.9 K	0.0693
451 K	0.0839
457 K	0.1042
458.8 K	0.148
460.4 K	0.1696
466.7 K	0.1977
468.7 K	0.2749
469.8 K	0.2497
476.5 K	0.3235
478.5 K	0.487

[2]
Conditions	molar heat capacity at constant pressure [J/K/mol]
230 K	182.5
240 K	188.9
250 K	195.4
260 K	201.9
270 K	208.3
280 K	214.8
290 K	221.3
300 K	227.8
310 K	234.3
320 K	240.8
330 K	247.3
340 K	253.8
350 K	260.4
360 K	266.9
370 K	273.5
380 K	280
390 K	286.6
400 K	293.2
410 K	299.8
420 K	306.4
